Molecular target: T1, androgen receptor (AR) (Homo sapiens, UniProt P10275, T878A)
T1 construct: LNCaP cells express endogenous AR; endogenous in cells; host or cells: LNCaP
T1 sequence (P10275 1-920 T878A): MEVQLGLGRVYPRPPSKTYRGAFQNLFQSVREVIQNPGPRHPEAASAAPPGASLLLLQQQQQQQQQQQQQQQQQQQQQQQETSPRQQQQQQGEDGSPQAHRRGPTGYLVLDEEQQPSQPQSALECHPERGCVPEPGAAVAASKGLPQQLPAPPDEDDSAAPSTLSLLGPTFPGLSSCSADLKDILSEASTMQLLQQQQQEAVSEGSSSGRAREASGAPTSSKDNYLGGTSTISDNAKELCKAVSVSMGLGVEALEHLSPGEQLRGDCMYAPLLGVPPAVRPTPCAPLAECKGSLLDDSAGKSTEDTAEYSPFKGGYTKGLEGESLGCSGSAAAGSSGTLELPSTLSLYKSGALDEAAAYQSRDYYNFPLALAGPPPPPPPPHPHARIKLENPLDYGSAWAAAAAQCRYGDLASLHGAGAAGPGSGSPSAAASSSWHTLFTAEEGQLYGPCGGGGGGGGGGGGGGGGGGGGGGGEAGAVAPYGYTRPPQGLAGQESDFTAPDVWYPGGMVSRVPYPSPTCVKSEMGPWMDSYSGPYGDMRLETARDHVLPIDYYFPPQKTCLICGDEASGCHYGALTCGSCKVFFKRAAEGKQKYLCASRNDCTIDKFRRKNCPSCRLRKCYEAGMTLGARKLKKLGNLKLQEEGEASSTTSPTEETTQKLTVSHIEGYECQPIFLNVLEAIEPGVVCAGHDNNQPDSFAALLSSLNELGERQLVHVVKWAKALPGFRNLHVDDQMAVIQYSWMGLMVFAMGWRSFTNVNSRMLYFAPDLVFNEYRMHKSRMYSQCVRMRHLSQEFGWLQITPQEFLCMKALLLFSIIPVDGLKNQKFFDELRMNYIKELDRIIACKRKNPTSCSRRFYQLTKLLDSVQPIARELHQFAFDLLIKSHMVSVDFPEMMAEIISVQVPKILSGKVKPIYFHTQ
Test: PSA (6.1 kb)-luciferase reporter assay in LNCaP cells induced with R1881
Format: cell-based
Settings: LNCaP cells transfected with PSA (6.1 kb)-luciferase; 1 h pre-treatment, R1881 1 nM, 48 h; relative luciferase activity
Text: LNCaP cells were employed initially for all experiments because they are well-differentiated human prostate cancer cells in which ligand-independent activation of the AR by FSK has been characterized (Nazareth et al 1996 J. Biol. Chem. 271, 19900-19907; and Sadar 1999 J. Biol. Chem. 274, 7777-7783). LNCaP cells express endogenous AR and secrete prostate-specific antigen (PSA) (Horoszewicz et al 1983Cancer Res. 43, 1809-1818). LNCaP cells can be grown either as monolayers in cell culture or as tumors in the well-characterized xenograft model that progresses to androgen independence in castrated hosts (Sato et al 1996 J. Steroid Biochem. Mol. Biol. 58, 139-146; Gleave et al 1991 Cancer Res. 51, 3753-3761; Sato et al 1997 Cancer Res. 57, 1584-1589; and Sadar et al 2002 Mol. Cancer. Ther. 1(8), 629-637). R1881 was employed since it is stable and avoids problems associated with the labile physiological ligand dihydrotestosterone (DHT). Reporter specificity may be determined using several alternative reporter gene constructs. Some well characterized ARE-driven reporter gene constructs that have been used extensively are the PSA (6.1 kb) enhance/promoter which contains several AREs and is highly inducible by androgens as well as by FSK (Ueda et al 2002 A J. Biol. Chem. 277, 7076-7085) and the ARR3-thymidine kinase (tk)-luciferase, which is an artificial reporter construct that contains three tandem repeats of the rat probasin ARE1 and ARE2 regions upstream of a luciferase reporter (Snoek et al 1996 J. Steroid Biochem. Mol. Biol. 59, 243-250).
LNCaP cells were transiently cotransfected with PSA (6.1 kb)-luciferase (0.25 μg/well) in 24-well plates for 24 h prior to pre-treatment with compounds for 1 hour before the addition of synthetic androgen, R1881 (1 nM), to induce PSA production or vehicle. The total amount of plasmid DNA transfected was normalized to 0.75 μg/well by the addition of the empty vector. After 48 h of incubation with R1881, the cells were harvested, and relative luciferase activity was determined. Test compounds were added to the cells at various concentrations and activity for each treatment was normalized to the predicted maximal activity induction (in the absence of test compounds, vehicle only). Plotting of sigmoidal curves (Boltzmann Function) and IC50 calculations were done using OriginPro 8.1 Sofware (Northampton, Mass., USA). Furthermore, toxicity was assessed by both microscopic examination and reduction of protein levels. Solubility was assessed both macroscopically (cloudy media) and microscopically (formation of granules or crystals).

`C#CCOCC(O)COc1ccc(C(C)(C)c2ccc(OCC(O)CCl)cc2)cc1` (centres unmarked) [Compound 3, 1-chloro-3-(4-(2-(4-(2-hydroxy-3-(prop-2-ynyloxy)propoxy)phenyl)propan-2-YL)phenoxy)propan-2-ol] and `C#CCOC[C@H](O)COc1ccc(C(C)(C)c2ccc(OC[C@@H](O)CCl)cc2)cc1` [Compound 10, (R)-1-chloro-3-(4-(2-(4-((S)-2-hydroxy-3-(prop-2-ynyloxy)propoxy)phenyl)propan-2-yl)phenoxy)propan-2-ol] are within 1.5-fold of each other in IC50: 1600 nM for the first, 2200 nM for the second.

Going from `C#CCOCC(O)COc1ccc(C(C)(C)c2ccc(OCC(O)CO)cc2)cc1` (centres unmarked) [Compound 5, 3-(4-(2-(4-(2-hydroxy-3-(prop-2-ynyloxy)propoxy)phenyl)propan-2-yl)phenoxy)propane-1,2-diol] to `C#CCOC[C@H](O)COc1ccc(C(C)(C)c2ccc(OC[C@H](O)CCl)cc2)cc1` [Compound 12], the IC50 falls from 4500 nM to 2200 nM (2-fold).

Compared with `C#CCOC[C@@H](O)COc1ccc(C(C)(C)c2ccc(OC[C@H](O)CCl)cc2)cc1` [Compound 16], `C#CCOC[C@@H](O)COc1ccc(C(C)(C)c2ccc(OC[C@@H](O)CCl)cc2)cc1` [Compound 18] is 5.3-fold lower in IC50: 6940 nM for the first, 1300 nM for the second.

First: COCC(O)COc1ccc(C(C)(C)c2ccc(OCC(O)CCl)cc2)cc1 (centres unmarked) [Compound 30, 1-chloro-3-(4-(2-(4-(2-hydroxy-3-methoxypropoxy)phenyl)propan-2-yl)phenoxy)propan-2-ol]
Second: CC(C)OCC(O)COc1ccc(C(C)(C)c2ccc(OCC(O)CCl)cc2)cc1 (centres unmarked) [Compound 32, 1-chloro-3-(4-(2-(4-(2-hydroxy-3-isopropdxypropoxy)phenyl)propan-2-yl)phenoxy)propan-2-ol]
The IC50 of the first is 2.6-fold higher: 11500 nM for the first, 4500 nM for the second.

Going from `CC(C)OCC(O)COc1ccc(C(C)(C)c2ccc(OCC(O)COC(C)C)cc2)cc1` (centres unmarked) [Compound 31, 3,3′-(4,4′-(propane-2,2-diyl)bis(4,1-phenylene))bis(oxy)bis(1-isopropoxypropan-2-ol)] to `CCCCOCC(O)COc1ccc(C(C)(C)c2ccc(OCC(O)CCl)cc2)cc1` (centres unmarked) [Compound 34, 1-butoxy-3-(4-(2-(4-(3-chloro-2-hydroxypropoxy)phenyl)propan-2-yl)phenoxy)propan-2-ol], the IC50 falls from 4500 nM to 1740 nM (2.6-fold).

In the case of `CCCCOCC(O)COc1ccc(C(C)(C)c2ccc(OCC(O)COCCCC)cc2)cc1` (centres unmarked) [Compound 33, 3,3′-(4,4′-(propane-2,2-diyl)bis(4,1-phenylene))bis(oxy)bis(1-butoxypropan-2-ol)], the IC50 is reported as 700 nM.

Source: patent publication US20140248263A1, “BISPHENOL COMPOUNDS AND METHODS FOR THEIR USE” (THE UNIVERSITY OF BRITISH COLUMBIA, priority 2011, published 2014)
